Experimental data as given in ChEMBL document CHEMBL2074057, “Active secretion of drugs from the small intestinal epithelium in rats by P-glycoprotein functioning as an absorption barrier” (J Pharm Pharmacol, 1996).

What was measured:
[1] = molecular target: T1, ATP-dependent translocase ABCB1 (Homo sapiens, UniProt P08183); assay: TP_TRANSPORTER: uptake in K562 and K562/ADR cell; format: functional, cell-based
[2] = molecular target: T1, ATP-dependent translocase ABCB1; assay: TP_TRANSPORTER: transepithelial transport (basal to apical) in Caco-2 cells; format: functional, cell-based

T1 sequence (P08183 whole entry): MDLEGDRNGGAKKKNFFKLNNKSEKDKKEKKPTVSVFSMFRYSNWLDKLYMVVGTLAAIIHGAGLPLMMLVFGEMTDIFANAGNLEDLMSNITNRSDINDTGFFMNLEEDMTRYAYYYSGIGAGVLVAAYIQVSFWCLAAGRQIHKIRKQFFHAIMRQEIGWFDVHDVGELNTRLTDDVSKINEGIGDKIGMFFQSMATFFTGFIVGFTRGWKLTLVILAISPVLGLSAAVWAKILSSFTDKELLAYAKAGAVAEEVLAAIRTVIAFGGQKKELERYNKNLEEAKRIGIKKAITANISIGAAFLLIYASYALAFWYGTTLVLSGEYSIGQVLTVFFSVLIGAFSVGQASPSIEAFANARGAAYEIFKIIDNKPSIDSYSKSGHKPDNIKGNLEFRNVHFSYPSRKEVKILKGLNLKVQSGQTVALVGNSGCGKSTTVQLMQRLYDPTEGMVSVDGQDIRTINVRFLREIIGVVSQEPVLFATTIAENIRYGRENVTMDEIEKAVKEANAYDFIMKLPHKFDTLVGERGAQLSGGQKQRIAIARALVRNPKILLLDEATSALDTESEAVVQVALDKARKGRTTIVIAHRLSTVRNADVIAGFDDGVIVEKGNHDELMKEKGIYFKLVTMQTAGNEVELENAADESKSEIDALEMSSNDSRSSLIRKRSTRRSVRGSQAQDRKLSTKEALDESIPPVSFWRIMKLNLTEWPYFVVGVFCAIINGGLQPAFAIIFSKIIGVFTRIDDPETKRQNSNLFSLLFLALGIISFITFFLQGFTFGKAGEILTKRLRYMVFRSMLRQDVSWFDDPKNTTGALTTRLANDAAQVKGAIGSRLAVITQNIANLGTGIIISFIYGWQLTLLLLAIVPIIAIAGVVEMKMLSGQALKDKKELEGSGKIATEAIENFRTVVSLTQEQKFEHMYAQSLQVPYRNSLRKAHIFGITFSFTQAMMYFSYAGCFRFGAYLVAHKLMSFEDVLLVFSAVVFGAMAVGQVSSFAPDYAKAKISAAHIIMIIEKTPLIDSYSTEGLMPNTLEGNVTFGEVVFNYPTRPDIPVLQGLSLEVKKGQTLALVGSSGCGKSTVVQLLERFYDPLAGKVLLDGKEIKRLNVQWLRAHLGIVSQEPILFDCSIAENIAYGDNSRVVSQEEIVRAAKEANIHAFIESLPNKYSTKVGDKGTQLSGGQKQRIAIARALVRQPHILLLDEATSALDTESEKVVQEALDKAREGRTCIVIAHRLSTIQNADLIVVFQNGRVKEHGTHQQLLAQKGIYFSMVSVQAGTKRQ

| Activity [1] | Activity [2] | SMILES |
| --- | --- | --- |
| substrate [+] | – | CC(C)(C)NC[C@H](O)COc1nsnc1N1CCOCC1 [TIMOLOL] |
| substrate [+] | – | CCN(CC)C(=O)Nc1ccc(OCC(O)CNC(C)(C)C)c(C(C)=O)c1 (stereo not given) [CELIPROLOL] |
| substrate [+] | – | CC(C)(C)NCC(O)COc1cccc2c1CC(O)C(O)C2 (stereo not given) [NADOLOL] |
| substrate [+] | substrate [+] | CCCC(=O)Nc1ccc(OCC(O)CNC(C)C)c(C(C)=O)c1 (stereo not given) [ACEBUTOLOL] |
